# Experimental data reported in US20130237556A1, “BERBERINE ALKALOID AS A MEDICAMENT FOR PREVENTION AND TREATMENT OF NEURAL DISEASE” (HONG KONG BAPTIST UNIVERSITY, priority 2012, published 2013).
# Where “and” joins values, the source holds several entries; their conditions need not be identical. Identical values can stand only once. Entries after “also recorded” stand apart in the source; their conditions may differ.
# Experiments:
# [1] = BBR levels in TgCRND8 brain tissue by LC/MS after oral administration; assay type: in vivo, mouse; conditions: for concentration at 3 hr: TgCRND8, mouse, brain, po, 3 hr after p.o. administration, LC/MS
# Procedure: To determine how oral administration of BBR influences the concentration of BBR in the brain, liquid chromatography and mass spectrometry techniques (LC/MS) are used to analyze changes in BBR levels in the TgCRND8 brain tissue in a separate experiment. BBR levels in the brain are found to be 0.88±0.27 and 1.67±0.73 μM for low and high doses of BBR respectively after 3 hr p.o. administration.
# [2] = system: TgCRND8 mice; assay: Aβ plaque burden by 4G8 immunostaining in cortex and hippocampus; assay type: in vivo, mouse
# [3] = system: TgCRND8 mice; assay: Morphometric analysis of Aβ plaque size subsets; assay type: in vivo, mouse
# [4] = molecular target: Aβ1-42 fibril formation (Homo sapiens, UniProt P05067); conditions: BBR 20 μM, in vitro; cited from earlier work
# [5] = Regular oral BBR treatment of TgCRND8 mice: body weight and side effects; conditions: BBR 25 or 100 mg/kg/d orally for 4 months
# [6] = system: TgCRND8 mice; assay: Western blot of brain homogenates (APP processing, tau phosphorylation, Akt/GSK3); assay type: in vivo, mouse
# [7] = system: N2a-SwedAPP cells; assay: Western blot of N2a-SwedAPP cell lysates (p-Akt, pGSK3, CTFs, p-APP, PHF-1); assay type: cell-based, mouse
# Procedure: N2a-SweAPP cells are mouse neuroblastoma N2a cells stably transfected with human Swedish mutant APP695, and were gifts from Dr. Gopal Thinakaran (University of Chicago, Chicago Ill.). Cells were maintained in Dulbecco's modified Eagle's medium (DMEM) (Invitrogen, Carlsbad, Calif.) supplemented with 10% fetal bovine serum, penicillin and streptomycin and 200 μg/mL G418 (Invitrogen). Cells were cultured either in multiwell dishes or on 60 mm tissue culture plates in DMEM 10% with FBS Cell cultures were incubated at 37° C. in a humid 5% CO2/ 95% air environment. After cells were grown close to confluence, they were treated with/without different concentrations of BBR in DMEM (1% FBS) for 24 h. […] For the concentration-dependent treatment, cells were treated with serial dilutions of BBR ranging from 0-20 μM for 2 or 12 h prior to lysis with ice-cold RIPA buffer (20 mM Tris, pH 7.4, 150 mM NaCl, 1% triton-X, 0.5% sodium deoxycholate, EDTA) containing protease inhibitor cocktails (EMD chemicals, Philadelphia, Pa.) to find the optimal range of BBR. For the time-dependent application, cells were treated with a 20 μM concentration of BBR and incubated at time points ranging from 0-180 min prior to lysis. For immunofluorescent staining, N2a-SwedAPP cells were seeded on glass cover slips at a density of 0.5×10^5 viable cells per well in a 24-well plate. Cells on cover slips were treated with BBR (20 μM) for 3 h with or without pretreatment of LY294002 (Cell signaling Technology, Danvers, Mass.), a specific inhibitor of Akt upstream kinase phosphatidylinositol 3-kinase (PI3K) (Vlahos et al., 1994) in serum-free DMEM for 1 h, whereas control cells were incubated with vehicle (DMSO) alone in DMEM.
# The brain SDS fraction as described above was used to detect the full-length APP (Fl-APP), APP C-terminal fragments (CTFs: CTF-β and CTF-α), p-APP, p-CTFs, BACE-1, ADAM-10, neprilysin, insulin-degrading enzyme (IDE), GSK3α/β, p-cyclin-dependent kinase 5 (p-CDKS), p-stress-activated protein kinase/Jun-amino-terminal kinase (p-JNK), phospho-tau epitopes and β-actin in Western blot analysis. For cell homogenates preparation, cells were washed with phosphate-buffered saline (PBS) and solubilized in ice-cold RIPA buffer. Equal amounts of protein (30 μg) were subjected to 10 and 15% SDS polyacrylamide gels, transferred onto PVDF membranes (GE Healthcare, Piscataway, N.J.) at 300 mA for 2 h, and then blocked with 5% fat-free milk in Tris-buffered saline and 0.1% Tween-20 for 2 h at room temperature. The membrane was then incubated with primary antibodies overnight at 4C. The antibodies used in Western blots were β-actin (mouse, 1:5000; Santa Cruz, Calif.), p-APP (rabbit, 1:1000; Cell signaling Technology), BACE-1 (rabbit, 1:1000; Abcam, Cambridge, Mass.), ADAM-10 (rabbit, 1:2000; EMD chemicals), insulin-degrading enzyme (IDE) (rabbit, 1:1000, Abcam), neprilysin (rabbit, 1:1000 Millipore, Temecula, Calif.), Akt (rabbit, 1:1000; Cell Signaling Technology), p-Akt (rabbit, 1:1000; Cell signaling), glycogen synthase kinase 3α/β(GSK-3α/β)[Ser21/9] (rabbit, 1:1000; Cell signaling Technology), pGSK-3α/βSer21/9] (rabbit, 1:1000; Cell signaling Technology), Cdk5[Y15] (rabbit, 1:1000; Abcam), JNK (Thr183/Tyr185) (rabbit, 1:1000, Cell signaling Technology), the C-terminal anti-APP antibody CT15 for full-length APP and CTFβ and CTFα (rabbit, 1:2000, and three mouse monoclonal antibodies against phosphorylated tau: AT8 (recognizes phosphorylated tau at Ser-202 and Thr-205, 1:1000, Pierce, Rockford, Ill.), AT180 (recognizes phosphorylated tau at Thr-231 and Ser-235, 1:1000, Pierce) and PHF-1 (recognizes -phosphorylated tau at […] and Ser 404, 1:2000, and one mouse monoclonal against dephosphorylaed tau: Tau-1 (recognizes the tau when serines 195, 198, 199, and 202 are dephosphorylated, 1:2000,). Mouse monoclonal Tau-5 used to recognize total tau (mouse 1:2000). Blots were washed in and incubated with corresponding horseradish peroxidase-conjugated secondary antibody. […]
# [8] = BBR 25 and 100 mg/Kg/d vs vehicle
# [9] = BBR- vs vehicle-treated TgCRND8
# [10] = BBR-treated vs vehicle-treated TgCRND8, dose not stated
# Chain of Aβ1-42 fibril formation (P05067 672-713 limits assumed): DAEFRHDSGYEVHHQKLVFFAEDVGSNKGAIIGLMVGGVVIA
structure (smiles),measurement,setting,value
"COc1ccc2cc3[n+](cc2c1OC)CCc1cc2c(cc1-3)OCO2 [BBR, 5,6-dihydro-9,10-dimethoxybenzo[g]-1,3-benzodioxolo[5,6-a]quinolizinium]",concentration at 3 hr,"[1]; 25 mg/kg/d, low dose of BBR",880 ± 270 nM
same,concentration at 3 hr,"[1]; 100 mg/kg/d, high dose of BBR",1670 ± 730 nM
same,passage through the blood-brain barrier,"[1]; mouse, in vivo",readily passes through the blood-brain barrier
same,decrease in plaque burden compared with control animals (4G8),[2]; 25 mg/Kg/d,60% and 61%
same,reduction in amyloid burden observed in this study,[2]; range over BBR doses (discussion),43-63%
same,percentage reduction in large (>50) amyloid plaque subset,[3]; 25 mg/Kg,60%
same,percentage reduction in medium (25-50 μm) amyloid plaque subset,[3]; 25 mg/Kg,41%
same,percentage reduction in small sized (<25 μm) amyloid plaque subset,[3]; 25 mg/Kg,35%
same,percentage reduction in total amyloid plaque number,[3]; 25 mg/Kg,37%
same,reduction of amyloid plaque subsets,[3]; 100 mg/Kg/d,21-28%
same,inhibition of Aβ1-42 fibril formation,[4],36.3%
same,animal body weight,[5],does not significantly influence animal body weight
same,CTF-α and β levels in brain homogenates,[6]; 25 mg/Kg/day,significantly reduces
same,ADAM-10 level in brain homogenates,[6]; [8],no significant difference; also recorded: no effect
same,BACE-1 level in brain homogenates,[6]; [8],no effect; also recorded: no significant difference
same,full length APP level in brain homogenates,[6]; [8],no effect; also recorded: no significant difference
same,total GSK3α/β and total Akt,[6]; BBR treatment,unaltered
same,IDE level in brain homogenates,[6]; BBR vs vehicle,no significant difference; also recorded: does not affect
same,neprilysin level in brain homogenates,[6]; BBR vs vehicle,no significant difference; also recorded: does not affect
same,p-Cdk5 (Y15) level,[6]; [9],no significant differences
same,p-JNK (Thr183/Tyr185) level,[6]; [9],no significant differences
same,phosphorylated Akt (p-Akt) level normalized to total Akt,[6]; [9],significantly high
same,tau-1 immunoreactivity (dephosphorylated tau),[6]; BBR-treated TgCRND8,significant increase
same,enhancement in phosphorylated GSK3α and β at Ser 21 and 9,[6]; BBR-treated vs vehicle-treated TgCRND8,50%
same,decrease of phosphorylated tau at AT8 phosphoepitope,[6]; [10],30%
same,decrease of phosphorylated tau at AT180 phosphoepitope,[6]; [10],42%
same,decrease of phosphorylated tau at PHF-1 phosphoepitope,[6]; [10],26%
same,total tau levels,[6]; between the groups,No significant difference
same,decrease in the p-APP and p-CTFs,[6]; high dose group vs vehicle,27-28%
same,decrease in the p-APP and p-CTFs,[6]; low dose group vs vehicle,46-50%
same,reduction in the level of CTFs,"[7]; 5 μM BBR, 12 hours",24%
same,decrease of p-APP (Thr668) level,"[7]; 10 μM BBR, 12 hours",50%
same,level of tau bound to PHF-1 decreased to % compared to control,"[7]; 10 μM BBR, 12 hours",30%
same,"amount of phosphorylated GSK3, time course","[7]; 20 μM BBR, 0-180 min, remains higher than control beyond 3 h",increases during the first 30 min
same,decrease of p-APP (Thr668) level,"[7]; 20 μM BBR, 12 hours",75%
same,level of tau bound to PHF-1 decreased to % compared to control,"[7]; 20 μM BBR, 12 hours",50%
same,"reduction of CTFs level (of basal level), maximal","[7]; 20 μM BBR, 12 hours",55%
same,"phosphorylation of Akt at Ser 473 and GSK3 at Ser 21 and Ser9, concentration-dependent","[7]; BBR 10 and 20 μM, 3 hours",significant increases
same,cellular total Akt and GSK3β levels,[7]; BBR treatment,does not significantly affect
